Counter-ions that a name gives are not always drawn. Like-named read-outs stand apart in the source and are kept apart here.
Legend:
[1] = target: polo-like kinase 1 (PLK1) (Homo sapiens, UniProt P53350); details: cited from earlier work
[2] = Gravimetric vapour sorption (GVS/DVS) hygroscopicity; format: physicochemical; details: for Hygroscopicity classification: weight increase from 40-80% RH (25° C.), classes of Table 9, monohydrate
Procedure: Sorption isotherms were obtained using a Hiden Isochema moisture sorption analyser (model IGAsorp), controlled by IGAsorp Systems Software V6.50.48. The sample was maintained at a constant temperature (25° C.) by the instrument controls. The humidity was controlled by mixing streams of dry and wet nitrogen, with a total flow of 250 ml·min^−1. The instrument was verified for relative humidity content by measuring three calibrated Rotronic salt solutions (10-50-88%). The weight change of the sample was monitored as a function of humidity by a microbalance (accuracy+/−0.005 mg). A defined amount of sample was placed in a tared mesh stainless steel basket under ambient conditions. A full experimental cycle typically consisted of three scans (sorption, desorption and sorption) at a constant temperature (25° C.) and 10% RH intervals over a 0-90% range (60 minutes for each humidity level).

Sequence of polo-like kinase 1 (PLK1) (P53350 whole entry): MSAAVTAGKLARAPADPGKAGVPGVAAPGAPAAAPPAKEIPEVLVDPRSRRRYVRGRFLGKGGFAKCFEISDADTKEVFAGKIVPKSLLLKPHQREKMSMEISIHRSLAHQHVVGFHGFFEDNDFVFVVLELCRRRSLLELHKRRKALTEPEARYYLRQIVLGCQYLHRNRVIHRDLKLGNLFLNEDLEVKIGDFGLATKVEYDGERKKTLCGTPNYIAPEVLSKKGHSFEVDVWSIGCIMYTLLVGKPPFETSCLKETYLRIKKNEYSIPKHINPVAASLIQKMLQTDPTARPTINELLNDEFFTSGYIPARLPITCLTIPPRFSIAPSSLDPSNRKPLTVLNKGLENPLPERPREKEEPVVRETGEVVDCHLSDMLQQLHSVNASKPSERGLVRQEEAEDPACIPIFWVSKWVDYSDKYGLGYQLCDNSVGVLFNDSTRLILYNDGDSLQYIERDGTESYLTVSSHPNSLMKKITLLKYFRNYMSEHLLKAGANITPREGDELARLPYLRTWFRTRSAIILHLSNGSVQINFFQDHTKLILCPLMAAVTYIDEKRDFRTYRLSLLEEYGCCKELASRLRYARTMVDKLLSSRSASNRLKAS

| SMILES | Inhibition of PLK1 (in words) [1] | Inhibition of PLK1 (in words) ([1]; listed as compound (I)) | Hygroscopicity (in words) [2] | Stability of the crystalline form (in words) [2] | Weight change (%) from 40 to 80% RH @25° C. (sorption cycle by GVS) ([2]; 40-80% RH, 25° C., sorption cycle) | Hygroscopicity classification ([2]; listed as monohydrochloride monohydrate salt) | Hygroscopicity classification [2] |
| --- | --- | --- | --- | --- | --- | --- | --- |
| COc1cc(C(=O)N[C@H]2CC[C@H](N3CCN(C)CC3)CC2)ccc1Nc1ncc2c(n1)N(C1CCCC1)CC1(CC1)C(=O)N2C [Compound (I), 4-(9′-cyclopentyl-5″-methyl-6′-oxo-5′,6′,8′,9′-tetrahydrospiro[cyclopropane-1,7′-pyrimido[4,5-b][1,4]diazepine]-2′-ylamino)-N((trans)-4-(4-methylpiperazin-1-yl)cyclohexyl)-3-methoxybenzamide] | potent inhibitory activity | potent inhibitor | – | – | – | – | – |
| COc1cc(C(=O)N[C@H]2CC[C@H](N3CCN(C)CC3)CC2)ccc1Nc1ncc2c(n1)N(C1CCCC1)CC1(CC1)C(=O)N2C [Monohydrochloride monohydrate] | – | – | relatively low hygroscopicity | stable crystalline form | +0.9% | slightly hygroscopic | Slightly hygroscopic (≥0.2% and <2%) |
